Experimental data taken from patent US20060122276A1, “Agent for inhibiting membrane virus reproduction, method for the production thereof, pharmaceutical composition and method for inhibiting viral infections” (priority 2003, published 2006).
Entries after “also recorded” stand apart in the source; their conditions may differ. Read-outs that look alike come from different tables or passages of the source.

Key:
[1] = test system: lymphoblastoid human cells MT-4; assay: Cytotoxicity on non-infected human lymphoblastoid cells; format: cell-based; settings: for Cytotoxic action of the preparation on cells: 1, 10 μg/ml and higher (to 100 μg/ml)
hepatitis C virus [2] = assay: Residual infectious activity (titers) of hepatitis C virus in SPEV culture medium; format: cell-based, hepatitis C virus genotype 1b; settings: for Lowering of virus titers in SPEV cell cultures: administered simultaneously with the virus
Method: (§1) In our work we used cytopathogenic strain of hepatitis C virus belonging to geno-type 1b. The strain was isolated from the blood serum of a patient suffering from chronic viral hepatitis C, identified as hepatic C virus. Infective doses of HSV equal to 10 TCD of 50/20 μl were used in the investigation.
For titrating the residual infectiousness of the virus, the same line of porcine embryo kidney cells (SPEV) was used.
(§2) For studying the antiviral activity of the preparation, the preparation was introduced in various concentrations into the SPEV cell cultures at the moment of infection and in 24 hours after the infection with hepatitis C virus on the cell in 24-cell plastic culture plates.
For determining the residual infectious activity of HSV, samples of the culture fluid were taken from the plate cells three days after the treatment of the infected cells with the preparation and titrated on the SPEV cell cultures. The infectious activity of HSV was taken into account from the results of titration on the 6-7th day after the infection, when maximum cytopathogenic action of the virus developed, applying the Rid and Mench formula for calculating the titer of the Hepatitis C virus.

[3] = test system: herpes simplex virus (HSV-1); assay: Antiviral activity with respect to HSV-1 in human embryo fibroblasts (M-21); format: cell-based, type 1, strain L2; settings: 100 TCD50, 48 hours after the infection
From the text: (§3) Herpes simplex virus, type 1, strain L2, replicated in VERO cells was used in the investigation.
(§4) […] acyclovir was used as positive control

Hep 2 cells [4] = assay: Apoptosis signs in Hep 2 cells (DNA fragmentation, Fas-antigen mRNA forms); format: cell-based, human; settings: for Redistribution of soluble and membrane Fas-antigen mRNA forms indicative of Fas-dependent apoptosis: 10, 50, 100 μg/ml
From the text: (§5) A reduction in the intensity of protein profiles was observed on the second day and most dramatically on the seventh day at the studied concentrations of the preparation as compared with control. This can be indicative of a reduction in the number of cells because of inhibition of the mitotic activity of cells in the presence of the preparation. On the 7th day of the action of the preparation a reduction in the number of DNA compared with control was observed. Checking for the presence of DNA fragmentation has shown its absence, i.e., apoptosis manifestations were not detected.
For establishing the influence of the preparation on intracellular biosynthetic processes, we have analyzed the synthesis and maturing in the Hep 2 cells of Fas-antigen mRNA. Fas-antigen is a receptor protein of the signal of programmed death of cells—apoptosis—and it can exist in two forms: in membrane form and in soluble form. It has been shown that in the presence of the preparation there occurs redistribution of the alternative forms of the Fas-antigen mRNA, this being indicative of the influence of the preparation on the biosynthetic processes in Hep 2 cells on the transcripton level; however, reconstructions indicative of the feasibility of Fas-dependent apoptosis are absent (FIG. 8).

HIV-1 [5] = assay: Treatment of HIV-1-infected patients, blood sample analyses
Method: The treatment was carried out in accordance with the following schedule: 20 mg rectal suppositories every three days, one suppository a day during 3 months.

HIV-1 [6] = settings: for Optical density: 6th day, values >0.086 are positive for HIV
Hep 2 cells [7] = assay: Proliferation of human epithelial carcinoma Hep 2 cells; format: cell-based
Method: In our experiments we used a 1 day culture of passage 14 Hep 2 cells—reinoculated cells of human epithelial carcinoma.
The growth medium contained DMEM+glutamine+antibiotics+5% FBS (fetal bovine serum). The supporting medium was DMEM/needle with a double kit of amino acids and vitamins+glutamine+antibiotics+10% of cattle serum.
The effect of such influence was most pronounced on the seventh day at the concentration of 100 μg/ml: there appeared discontinuities in the monolayer and there were many cell conglomerates in the culture medium.
The monolayer was removed from the glass plate in the 500 μl volume of the medium. The cells were precipitated from 200 μl, resuspended in a lysing buffer; electrophoresis of proteins was carried out in 12.5% PAAG with Kumashi staining.
as §5

[8] = test system: African green monkey kidney cells (VERO); assay: Cytotoxic action on non-infected VERO cells; format: cell-based; settings: 500 and 1000 μg/ml; 3-days follow-up
hepatitis C virus [9] = assay: Viability of hepatitis C virus-infected SPEV cell cultures; format: cell-based, hepatitis C virus genotype 1b; settings: 7th day after infecting (control 0)
Method: as §1
Cultures of reinoculated porcine embryo kidney cells (SPEV), highly sensitive to the pathogenic action of HSV, obtained from “Narva” Company (Russia) were employed. These cultures were used in the form of a one day monolayer of cells, grown in 24-cell plastic plates.
as §2
The viability of the SPEV cell cultures infected and non-infected with HSV was studied on the 7th day after the infection.

[10] = test system: herpes simplex virus (HSV-1); assay: Antiviral activity with respect to HSV-1 in VERO cells; format: cell-based, type 1, strain L2; settings: 100 TCD50, 48 hours after the infection
From the text: as §3, §4

[11] = 1.0, 10 and 50 μg/ml, introduced 30 and 60 minutes after the infection

## sodium salt of fullerene-polyamino-caproic acid
[1]; 100 μg/ml, non-infected human lymphoblastoid cells (cell control 93)
  Viability of cells, %: 85%
[1]; 100 μg/ml, non-infected human lymphoblastoid cells (cell control 966)
  Number of cells in 1 ml × 1000: 866 in 1 ml × 1000
[1]
  Cytotoxic action of the preparation on cells: no cytotoxic action
[1]; listed as sodium salt of fullerene-polyamino-propanoic acid
  Cytotoxic action of the preparation on cells: not detected
Hepatitis C virus [2]; 6.25 μg/ml, introduced 24 hours after infecting (control 9.1)
  Titers of hepatitis C virus in medium samples taken on the 3rd day after infecting: 9.0 1 g TCD 50/20 μl
Hepatitis C virus [2]; 6.25 μg/ml, introduced at the moment of infecting (control 9.5)
  Titers of hepatitis C virus in medium samples taken on the 3rd day after infecting: 9.7 1 g TCD 50/20 μl
Hepatitis C virus [2]; 12.5 μg/ml, introduced 24 hours after infecting (control 9.1)
  Titers of hepatitis C virus in medium samples taken on the 3rd day after infecting: 9.9 1 g TCD 50/20 μl
Hepatitis C virus [2]; 12.5 μg/ml, introduced at the moment of infecting (control 9.5)
  Titers of hepatitis C virus in medium samples taken on the 3rd day after infecting: 9.5 1 g TCD 50/20 μl
Hepatitis C virus [2]; 25 μg/ml, introduced 24 hours after infecting (control 9.1)
  Titers of hepatitis C virus in medium samples taken on the 3rd day after infecting: 9.5 1 g TCD 50/20 μl
Hepatitis C virus [2]; 25 μg/ml, introduced at the moment of infecting (control 9.5)
  Titers of hepatitis C virus in medium samples taken on the 3rd day after infecting: 9.3 1 g TCD 50/20 μl
Hepatitis C virus [2]; 50 μg/ml, listed as preparation
  Lowering of virus titers in SPEV cell cultures: 3.0 lg
Hepatitis C virus [2]; 50 μg/ml, introduced 24 hours after infecting (control 9.1)
  Titers of hepatitis C virus in medium samples taken on the 3rd day after infecting: 8.5 1 g TCD 50/20 μl
Hepatitis C virus [2]; 50 μg/ml, introduced at the moment of infecting (control 9.5)
  Titers of hepatitis C virus in medium samples taken on the 3rd day after infecting: 6.2 1 g TCD 50/20 μl
Hepatitis C virus [2]; 100 μg/ml
  Lowering of virus titers in SPEV cell cultures: 7.4 lg
Hepatitis C virus [2]; 100 μg/ml, introduced 24 hours after infecting (control 9.1)
  Titers of hepatitis C virus in medium samples taken on the 3rd day after infecting: 3.0 1 g TCD 50/20 μl
Hepatitis C virus [2]; 100 μg/ml, introduced at the moment of infecting (control 9.5)
  Titers of hepatitis C virus in medium samples taken on the 3rd day after infecting: 2.1 1 g TCD 50/20 μl
[3]; 10 μg/ml
  Protection of M-21 cells against the cytodestructive action of HSV-1: full protection
[3]; [11]
  Protection of M-21 cells from the cytodestructive action of HSV-1: full protection
Hep 2 cells [4]
  DNA fragmentation (apoptosis manifestations): not recorded
  Redistribution of soluble and membrane Fas-antigen mRNA forms indicative of Fas-dependent apoptosis: no redistribution
Hep 2 cells [4]; listed as preparation
  Redistribution of soluble and membrane Fas-antigen mRNA forms indicative of Fas-dependent apoptosis: absent
  DNA fragmentation (apoptosis manifestations): absence
HIV-1 [5]; HIV-1-infected patients, 20 mg rectal suppositories, 3 months
  Condition of the patients: improvement
HIV-1 [5]; Patient A, after 1 month, 20 mg rectal suppository every day, before treatment 8
  Virus titer (value reciprocal to the dilution of sample that gives 50% CPE or syncytia): 2
HIV-1 [5]; Patient A, after 1 month, 20 mg rectal suppository every day, before treatment 59
  T4-lymphocytes, mm^3: 355 mm^3
HIV-1 [5]; Patient A, after 1 month, 20 mg rectal suppository every day, before treatment 63
  T8-lymphocytes, mm^3: 455 mm^3
HIV-1 [5]; Patient A, after 1 month, 20 mg rectal suppository every day, before treatment 1,200,000
  PCR, RNA, copies/ml: 72,000 copies/ml
HIV-1 [5]; Patient A, after 2 months, 20 mg rectal suppository every day, before treatment 8
  Virus titer (value reciprocal to the dilution of sample that gives 50% CPE or syncytia): 2
HIV-1 [5]; Patient A, after 2 months, 20 mg rectal suppository every day, before treatment 59
  T4-lymphocytes, mm^3: 234 mm^3
HIV-1 [5]; Patient A, after 2 months, 20 mg rectal suppository every day, before treatment 63
  T8-lymphocytes, mm^3: 219 mm^3
HIV-1 [5]; Patient A, after 2 months, 20 mg rectal suppository every day, before treatment 1,200,000
  PCR, RNA, copies/ml: 43,000 copies/ml
HIV-1 [5]; Patient A, after 3 months, 20 mg rectal suppository every day, before treatment 8
  Virus titer (value reciprocal to the dilution of sample that gives 50% CPE or syncytia): 0
HIV-1 [5]; Patient A, after 3 months, 20 mg rectal suppository every day, before treatment 59
  T4-lymphocytes, mm^3: 381 mm^3
HIV-1 [5]; Patient A, after 3 months, 20 mg rectal suppository every day, before treatment 63
  T8-lymphocytes, mm^3: 409 mm^3
HIV-1 [5]; Patient A, after 3 months, 20 mg rectal suppository every day, before treatment 1,200,000
  PCR, RNA, copies/ml: 44,000 copies/ml
HIV-1 [5]; Patient B, after 1 month, 20 mg rectal suppositories every three days, before treatment 4
  Virus titer (value reciprocal to the dilution of sample that gives 50% CPE or syncytia): 128
HIV-1 [5]; Patient B, after 1 month, 20 mg rectal suppositories every three days, before treatment 163
  T4-lymphocytes, mm^3: 581 mm^3
HIV-1 [5]; Patient B, after 1 month, 20 mg rectal suppositories every three days, before treatment 257
  T8-lymphocytes, mm^3: 464 mm^3
HIV-1 [5]; Patient B, after 1 month, 20 mg rectal suppositories every three days, before treatment 140,000
  PCR, RNA, copies/ml: 180,000 copies/ml
HIV-1 [5]; Patient B, after 2 months, 20 mg rectal suppositories every three days, before treatment 4
  Virus titer (value reciprocal to the dilution of sample that gives 50% CPE or syncytia): 2
HIV-1 [5]; Patient B, after 2 months, 20 mg rectal suppositories every three days, before treatment 163
  T4-lymphocytes, mm^3: 329 mm^3
HIV-1 [5]; Patient B, after 2 months, 20 mg rectal suppositories every three days, before treatment 257
  T8-lymphocytes, mm^3: 329 mm^3
HIV-1 [5]; Patient B, after 2 months, 20 mg rectal suppositories every three days, before treatment 140,000
  PCR, RNA, copies/ml: 3,500 copies/ml
HIV-1 [5]; Patient B, after 3 months, 20 mg rectal suppositories every three days, before treatment 4
  Virus titer (value reciprocal to the dilution of sample that gives 50% CPE or syncytia): 1
HIV-1 [5]; Patient B, after 3 months, 20 mg rectal suppositories every three days, before treatment 163
  T4-lymphocytes, mm^3: 325 mm^3
HIV-1 [5]; Patient B, after 3 months, 20 mg rectal suppositories every three days, before treatment 257
  T8-lymphocytes, mm^3: 401 mm^3
HIV-1 [5]; Patient B, after 3 months, 20 mg rectal suppositories every three days, before treatment 140,000
  PCR, RNA, copies/ml: 2,000 copies/ml
HIV-1 [6]; 0.5 μg/ml
  Optical density: 2.147
HIV-1 [6]; 1.0 μg/ml
  Optical density: 0.165
HIV-1 [6]; 10 μg/ml
  Optical density: 0.074
HIV-1 [6]; 10 μg/ml, HIV-1
  Virus in the culture medium: not detected
Hep 2 cells [7]; 7th day
  Number of DNA compared with control: reduction
Hep 2 cells [7]; 10, 50 and 100 μg/ml, most pronounced at 100 μg/ml
  Proliferation of Hep 2 cells (monolayer formation): pronounced inhibition; also recorded: inhibits the formation of a monolayer
Hep 2 cells [7]; second day and most dramatically seventh day, 10, 50 and 100 μg/ml
  Intensity of protein profiles compared with control: reduction
[8]
  Cytodestructive action on non-infected VERO cells: has not revealed cytodestructive action
Hepatitis C virus [9]; 6.25 μg/ml, introduced 24 hours after infecting
  Percentage of survived SPEV cells: 0%
Hepatitis C virus [9]; 6.25 μg/ml, introduced at the moment of infecting
  Percentage of survived SPEV cells: 0%
Hepatitis C virus [9]; 12.5 μg/ml, introduced 24 hours after infecting
  Percentage of survived SPEV cells: 0%
Hepatitis C virus [9]; 12.5 μg/ml, introduced at the moment of infecting
  Percentage of survived SPEV cells: 0%
Hepatitis C virus [9]; 25 μg/ml, introduced 24 hours after infecting
  Percentage of survived SPEV cells: 0%
Hepatitis C virus [9]; 25 μg/ml, introduced at the moment of infecting
  Percentage of survived SPEV cells: 0%
Hepatitis C virus [9]; 50 μg/ml, introduced 24 hours after infecting
  Percentage of survived SPEV cells: 50%
Hepatitis C virus [9]; 50 μg/ml, introduced at the moment of infecting
  Percentage of survived SPEV cells: 75%
Hepatitis C virus [9]; 100 μg/ml, introduced 24 hours after infecting
  Percentage of survived SPEV cells: 100%
Hepatitis C virus [9]; 100 μg/ml, introduced at the moment of infecting
  Percentage of survived SPEV cells: 100%
[10]; 10 μg/ml
  Protection of VERO cells against the cytodestructive action of HSV-1: full protection
[10]; [11]
  Protection of VERO cells from the cytodestructive action of HSV-1: full protection
